Experiments:
[1] = tested on: IgE-mediated auricle edema; experiment: Auricle edema in experimental atopic dermatitis model (anti-DNP IgE sensitization, DNFB elicitation); format: in vivo, Balb/c mice; details: Compound Nos. 8 and 10 60 mg/kg s.c., prednisolone 10 mg/kg i.p.
Description: Intravenous injection of an anti-2,4-dinitrophenol (DNP) antibody (anti-DNP Ab, monoclonal IgE Ab; its antibody titer was 1 : 512 to 1 : 1024 by a rat heterologous passive cutaneous anaphylaxis reaction using a Wister rat) into a tail vein of female Balb/c mice (7-week old, body weight: 17 to 20 g, purchased from JAPAN SLC, Inc.) at a dose of […] per animal raised passive sensitization. Twenty four hours post-sensitization, 0.1% 2,4-dinitrofluorobenzene (DNFB; Nacalai Tesque, Inc.) in ethanol was painted onto both sides of a pair of mouse auricles at a dose of 10 µL per each side for elicitation.
Fresh unsensitized mice were painted with 0.1% DNFB in ethanol onto their ear in the same manner as aforementioned and served as a control group. Not only immediately prior to elicitation but also 1 hour, 5 hours, daily between Days 1 and 14, and on Day 16 post-elicitation, ear thickness was measured using a dial thickness gauge (Peacock Co.). Each degree of auricle edemas was calculated: Auricular Edema (µm)=(Ear Thickness Post-Elicitation, µm) - (Ear Thickness immediately prior to Elicitation, µm) [formula]
Balb/c mice were passively sensitized with anti-DNP IgE Ab in the same manner as in Example 1. Twenty four hours later, 0.1% DNFB in ethanol was painted onto both sides of a pair of mouse auricles at a dose of 10 µL per each side for elicitation.
Immediately prior to elicitation, 1 hour and on Day 1 post-elicitation, auricle thickness was measured in the same manner as in Example 1. Each therapeutic efficacy is recorded as a percent inhibition wherein the "auricle edema (untreated group)" is used as a control. Auricle Edema Inhibition (%) = [ 1 -(Auricle Edema (Treated Group))/(Auricle Edema (Untreated Group))] × 100 (%) [formula]
(§1) Mice were sensitized with anti-DNP IgE Ab and then elicited by painting 0.1% DNFB in ethanol onto both sides of a pair of mouse auricles at a dose of 10 µL per each side 24 hours post-sensitization in the same manner as in Example 1. […] Immediately prior to elicitation, and on Day 7 post-elicitation, auricle thickness was similarly measured. Each therapeutic efficacy is recorded as a percent inhibition wherein the auricle edema in the untreated group is used as a control.
as §1, with “(untreated group)” for “in the untreated group”
Mice were sensitized with anti-DNP IgE Ab and then elicited by painting 0.1% DNFB in ethanol onto both sides of a pair of mouse auricles at a dose of 10 µL per each side 24 hours post-sensitization in the same manner as in Example 1. […] Immediately prior to elicitation, at 1 and 4 hours and on Days 1, 3 and 7 post-elicitation, auricle thickness was similarly measured. From each auricle edema (µm) based on the auricle thickness immediately prior to elicitation, especially a prophylactically therapeutic efficacy of the test compound was evaluated.
Mice were sensitized with anti-DNP IgE Ab and then elicited by painting 0.1% DNFB in ethanol onto both sides of a pair of mouse auricles at a dose of 10 µL per each side 24 hours post-sensitization in the same manner as in Example 1. A solution of a test metalloproteinase inhibitor (Compound No. 8; 50 µg/ear/dose, twice a day) in ethanol was painted onto both sides of a pair of the mouse auricles 1 hour pre-elicitation, 0.25, 3, 4, 5 and 6 days post-elicitation (5 animals per group). Immediately prior to elicitation, at 0.5, 1 and 4 hours and on Days 1, 3 and 7 post-elicitation, auricle thickness was similarly measured. Each amount of auricle edemas was calculated (average± standard deviation). […]

[2] = Mouse body weight gain (side-effect index); format: in vivo, mice; details: average ± standard deviation; once a day Days 0-5; Compound No. 8 or 10 60 mg/kg s.c., prednisolone 10 mg/kg i.p.
Description: Next the mice were measured for their body weight.

[3] = tested on: Experimental Bronchial Asthma Model; experiment: Experimental bronchial asthma model (ovalbumin-sensitized, airway resistance and asthmatic death); format: in vivo, Guinea pigs; details: for % Survival: asthmatic death within several minutes after elicitation
Description: Guinea pigs (female, Std:Hartley, 3 weeks old, 200 to 250 g) were individually housed in a plastic chamber (width, 200 mm; depth, 300 mm; height, 167 mm). Aqueous ovalbumin (10 mg/mL) was administered to the guinea pigs once a day for sensitization by 10 min. inhalation with a nebulizer (5B, Nippon Shoji K.K.: flow rate, 6 L/min.) at a dose of 10 mg/mL during 8 cosecutive days. On Day 7 after the final sensitization, the guinea pigs were housed in a plastic chamber and inhaled using a nebulizer with a solution of ovalbumin (10 mg/mL) in physiological saline for 1 min. for elicitation (Matsumoto, T., et al., The Journal of Pharmacology and Experimental Therapeutics, 269: 1236-1244, 1994). The number of animals employed in the experiment was set to the extent there are at least 6 as individuals escaping asthmatic death. A solution of a test metalloproteinase inhibitor (Compound No. 8, 15 mg/kg) in water for injection was administered subcutaneously twice, i.e., 24 hours and 2 hours prior to elicitation. Similarly, the solvent alone was also administered to a negative control group. A suspension of prednisolone (10 mg/kg) in 0.5% aqueous methyl cellulose was administered orally twice, i.e., 24 hours and 2 hours prior to elicitation. Similarly, the solvent alone was also administered to another control group.
The evaluation for efficacies was conducted in terms of airway resistance. For this purpose, an apparatus dedicated to the measurement of airway resistance (K.K. Medical Agent) was employed. Measurement includes setting a guinea pig in a test chamber under a not-anesthetized condition, applying sinusoidal pressure waves of 30 Hz components to a part below the neck of the animal from the back side of the chamber, measuring respiratory waves of 30 Hz components leaking through the mouth (volume of 30 Hz air flow passing through the respiratory tract) in front of the neck, and calculating airway resistance mechanically. Measurement was carried out immediately prior to the first drug treatment (24 hours before elicitation), just prior to elicitation, 10 minutes, 1, 2, 4, 6, and 8 hours post-elicitation.
It was visually observed by a person carrying out said test in terms of the appearance of cyanosis or suffocative death (asthmatic death) due to respiratory obstruction.
Guinea pigs were sensitized with ovalbumin and asthma was induced on Day 7 after final sensitization in the same manner as in Example 18. The number of animals employed in the experiment was set to the extent there are at least 6 as individuals escaping asthmatic death (8 to 11 animals/group). In the same manner as in Example 18, the animals were measured for airway resistance mechanically and each percent change (%) in airway resistance was calculated (each value just prior to elicitation was set as 100%). Each percent amelioration in airway resistance was calculated from the percent changes in airway resistance according to the following formula: Amelioration in Airway Resistance (%) = 1 -[((Percent Change in Airway Resistance after Drug-Administration)-(Value just prior to Challenge (100)))/((Percent Change in Airway Resistance after Solvent -Administration)-(Value just prior to Challenge (100)))]× 100 [formula]
A solution of a test metalloproteinase inhibitor (Compound No. 22: 15 mg/kg or 30 mg/kg) in water for injection or the solvent alone as a negative control was administered to each animal subcutaneously twice, i.e., 24 hours and 2 hours prior to elicitation.

[4] = Body weight gain in sensitized mice (experimental atopic dermatitis model); format: in vivo; details: painted on auricles twice a day; Compound No. 8 50 µg/ear/dose, prednisolone 5 µg/ear/dose; Days 1, 4 and 7; versus solvent control (ethanol)
Description: Experimental atopic dermatitis model mice sensitized in the same manner as in Example 1 were examined for influence on body weight gains.
A solution of a test metalloproteinase inhibitor (Compound No. 8; 50 µg/ear/dose, twice a day) in ethanol or a solution of prednisolone (5 µg/ear/dose, twice a day) in ethanol was administered to mice (5 animals per group) by painting onto both sides of a pair of the auricles, not only one hour prior to elicitation but also 0.25, 3, 4, 5 and 6 days post-elicitation. Each mouse was measured for its body weight not only immediately before the start in painting but also on Days 1, 4 and 7 after the start in painting. Each gain in body weight was calculated and considered to indicate an effect on body weight changes affected by said treatments.

[5] = Compound No. 22 15 mg/kg s.c., prednisolone 10 mg/kg orally
[6] = suffocative death due to cyanosis just after elicitation, Compound No. 8 15 mg/kg s.c., prednisolone 10 mg/kg orally, 24 and 2 hours prior to elicitation

Structure (SMILES) | % Inhibition IPR ([1]; auricle edema 1 hour post-elicitation, treatment 24 & 2 hours prior to DNFB-elicitation) | % Inhibition LPR ([1]; auricle edema Day 1 post-elicitation, treatment 24 & 2 hours prior to DNFB-elicitation) | % Inhibition vLPR ([1]; auricle edema Day 7 post-elicitation, daily from 3 to 6 days after DNFB-elicitation) | Body Weight Gain, Day 5 [2] | Body Weight Gain, Day 7 [2] | Body Weight Gain, Day 10 [2] | % Amelioration in Airway Resistance, 1 Hour ([3]; 1 hour after elicitation, Compound No. 22 15 mg/kg s.c., prednisolone 10 mg/kg orally) | % Amelioration in Airway Resistance, 6 Hours ([3]; 6 hours after elicitation, Compound No. 22 15 mg/kg s.c., prednisolone 10 mg/kg orally) | % Amelioration in Airway Resistance, Immediately after Elicitation ([3]; Compound No. 22 15 mg/kg s.c., prednisolone 10 mg/kg orally, 24 and 2 hours prior to elicitation) | cyanosis ([3]; after elicitation, s.c. administration) | % Survival [3, 5] | gain in body weight (FIG. 9) [4] | % Mortality [3, 6] | (Dead Animals)/(Tested Animals) [3, 6]
CC(=O)O.CNC(=O)[C@H](Cc1ccc(CNC(C)=N)cc1)NC(=O)[C@H](CC(C)C)C(CCCc1ccccc1)C(=O)NO (single isomer, unassigned) [Compound No. 10, N-[4-(N-hydroxyamino)-2(R)-isobutyl-3(R or S)-(3-phenyltrimethylene)succinyl]-L-4'-acetimidoyliminomethylenephenylalanine-N-methylamide 1 acetate] | 38.2% | 39.2% | 44.7% | 1.08± 0.39 | 1.62± 0.26 | 1.40± 0.30 |  |  |  |  |  |  |  | 
CC(=O)O.CNC(=O)[C@H](Cc1ccc(NC(=N)N)cc1)NC(=O)[C@@H](CC(=O)NO)CC(C)C [Compound No. 22, N-[4-(N-hydroxyamino)-2(R)-isobutylsuccinyl]-L-4'-guanidophenylalanine-N-methylamide 1 acetate] |  |  |  |  |  |  | 56.4% | 102.2% | 12.3% | moderation in cyanosis is also observed | 88.9% |  |  | 
C[C@]12C=CC(=O)C=C1CC[C@@H]1[C@@H]2[C@@H](O)C[C@@]2(C)[C@H]1CC[C@]2(O)C(=O)CO [Prednisolone, prednisolone, reference compound] |  |  |  | 0.00± 0.26 | 0.03± 0.57 | 0.97± 0.47 |  |  |  |  | 75.0% | below that in the solvent control group | 22.2% | 2/9
